Measured values as given in patent US20090298875A1, “A Combination of Compounds, Which Can be Used in the Treatment of Respiratory Diseases, Especially Chronic Obstructive Pulmonary Disease (COPD) and Asthma” (ASTRAZENECA AB, priority 2005, published 2009).

Assay: Estimated solubility of the salt in organic solvents
Type: physicochemical
Method: (b) The Form B salt described in (a) above was also prepared by dissolving, in a vial, 20% w of a sample of the benzoate salt prepared by the method of Example 1(b) (Form A) in a solvent such as methanol (>20 mg/ml), ethanol (>20 mg/ml), n-propanol (>20 mg/ml), isopropanol (8.5 mg/ml) or acetone (9.6 mg/ml). The figures in brackets indicate the estimated solubility of the salt in these solvents. The vial was then sealed and the suspension was homogenised at ambient temperature (20° C.) using a magnet. Stirring and temperature were maintained for a period of at least 7 days after which time a sample of the material obtained was dried and tested by XRPD. XRPD confirmed that there had been complete transformation of Form A to Form B.
(a) Form B was prepared by dissolving, in a vial, 20% w of a sample of the furoate salt prepared by the method of Example 1(b) (Form A) in a solvent such as ethanol (16 mg/ml) or 2-butanol (8 mg/ml). The figures in brackets indicate the estimated solubility of the salt in these solvents. The vial was then sealed and the suspension was homogenised at ambient temperature (20° C.) using a magnet. Stirring and temperature were maintained for a period of at least 7 days after which time a sample of the material obtained was dried and tested by XRPD. XRPD confirmed that there had been complete transformation of Form A to Form B.

| Structure (SMILES) | estimated solubility of the salt (acetone) | estimated solubility of the salt (ethanol) | estimated solubility of the salt (isopropanol) | estimated solubility of the salt (methanol) | estimated solubility of the salt (n-propanol) | estimated solubility of the salt (2-butanol) |
| --- | --- | --- | --- | --- | --- | --- |
| CC(=O)Nc1ccc(O)cc1OC[C@@](C)(O)CNC1CCN(Cc2ccc(Cl)cc2)CC1.O=C(O)c1ccccc1 [Example 1(b), N-{2-[((2S)-3-{[1-(4chlorobenzyl)piperidin-4-yl]amino}-2-hydroxy-2-methylpropyl)oxy]-4-hydroxyphenyl}acetamide benzoate (1:1 Salt), Form A] | 9.6 mg/mL | > 20 mg/mL | 8.5 mg/mL | > 20 mg/mL | > 20 mg/mL |  |
| CC(=O)Nc1ccc(O)cc1OC[C@@](C)(O)CNC1CCN(Cc2ccc(Cl)cc2)CC1.O=C(O)c1ccco1 [1(c), N-{2-[((2S)-3-{[1-(4-chlorobenzyl)piperidin-4-yl]amino}-2-hydroxy-2-methylpropyl)oxy]-4-hydroxyphenyl}acetamide furoate (1:1 Salt), Form A] |  | 16 mg/mL |  |  |  | 8 mg/mL |
